From patent publication US9006228B2 (Merck Sharp & Dohme Corp., priority 2011, dated 2015) come the findings set out here.

This assay deals with T1, human GPR119 (Homo sapiens, UniProt Q8TDV5).
T1 sequence (Q8TDV5 1-308 limits assumed): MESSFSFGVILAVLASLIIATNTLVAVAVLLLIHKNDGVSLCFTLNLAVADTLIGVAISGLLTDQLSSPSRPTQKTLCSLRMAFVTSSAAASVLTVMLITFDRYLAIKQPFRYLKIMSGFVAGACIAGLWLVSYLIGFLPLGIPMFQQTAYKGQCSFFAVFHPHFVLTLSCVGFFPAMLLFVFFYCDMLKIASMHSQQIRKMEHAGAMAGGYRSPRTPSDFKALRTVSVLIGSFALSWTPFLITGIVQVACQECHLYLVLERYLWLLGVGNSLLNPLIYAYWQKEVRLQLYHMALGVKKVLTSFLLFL
Nature of the assay: Measurement of GPR119 signaling (cAMP assay; LANCE kit or HTRF) in HEK293 cells stably transfected with human GPR119. The class given is cell-based. The conditions noted are these: agonist-stimulated cAMP in HEK293 cells expressing human GPR119. How it is done: Measurement of GPR119 Signaling Using LANCE 384-Well cAMP Kit
The adenylate cyclase assay was constructed following the LANCE™ cAMP Kit (Perkin Elmer, AD0264) instructions. […] The reaction was stopped by incubating with the supplied detection buffer containing the europium chelate of the Eu-SA/Biotin-cAMP tracer for 3 hours. The assay was performed in duplicate in a 384 well plate for duplicate plates. Fluorescence at 665 nm was measured using a PHERAstar instrument. Basal activity was determined using a DMSO control and maximum response was defined as cAMP stimulation produced by an internal agonist control. Standard cAMP concentrations were assayed concurrently for conversion of fluorescence signal to cAMP level. The data was analyzed using 4-parameter curve fit in Microsoft Excel.
Measurement of GPR119 Signaling Using a Cyclic AMP (cAMP) Homogenous Time Resolved Fluorescence (HTRF) Assay
Chinese hamster ovary (CHO) cell lines stably transfected with the permissive guanine nucleotide binding protein alpha 15 (Gα15) and murine GPR119 were maintained in DMEM media containing FBS, penicillin-streptomycin, puromycin, and G418 (geneticin). […] Agonist activation of the GPR119 receptor was measured in receptor transfected cells described above, treated with compounds of this invention, using a commercial homogenous time resolved fluorescence (HTRF) kit for measurement of cAMP (CisBio, Bedford, Mass.). The assay was performed in 96-well half-volume plates (murine) or 384-well plates (human) following the manufacturers instructions. Briefly, suspended cells were incubated with a dose titration of test compound at RT for 60 min, lysed, and incubated with HTRF reagents for an additional 60 min. The plate was read using an Envision multilabel reader (Perkin Elmer) adjusted to read time resolved fluorescence and the cAMP concentrations were extrapolated from a cAMP calibration curve. […] The concentration of test compound required to stimulate a half-maximal response (EC50), and efficacy as compared to an internal agonist control, was determined from a sigmoidal 4-parameter curve fit of the resulting plot of normalized activity versus compound concentration.
For orientation: Changes in cAMP serve as a functional read-out for many G protein-coupled receptors.
As usually defined, the EC50 is the midpoint of the concentration-response curve. Read a high EC50 as a less potent agent. As for `CCS(=O)(=O)c1ccc(COC[C@@H]2C[C@@H]2C2CCN(c3nc(C(C)C)no3)CC2)cc1` [Example 26, 4-[(1R,2R)-2-({[4-(ethylsulfonyl)benzyl]oxy}methyl)cyclopropyl]-1-(3-isopropyl-1,2,4-oxadiazol-5-yl)piperidine], a half-maximal response (EC50) required 3.1 nM.

Consider `CS(=O)(=O)c1ccc(COC[C@@H]2C[C@@H]2C2CCN(c3nc(C4CC4)no3)CC2)cc1` [Example 27, 1-(3-cyclopropyl-1,2,4-oxadiazol-5-yl)-4-[(1R,2R)-2-({[4-(methylsulfonyl)benzyl]oxy}methyl)cyclopropyl]piperidine], for which the midpoint of the response, the EC50, lay at 3.2 nM.

With `O=S(=O)(c1ccc(COC[C@@H]2C[C@@H]2C2CCN(c3nc(C4CC4)no3)CC2)cc1)C1CC1` [Example 28, 1-(3-cyclopropyl-1,2,4-oxadiazol-5-yl)-4-[(1R,2R)-2-({[4-(cyclopropylsulfonyl)benzyl]oxy}methyl)cyclopropyl]piperidine], the response was half-maximal at 12 nM (EC50).

For the compound `CCS(=O)(=O)c1ccc(COC[C@@H]2C[C@@H]2C2CCN(c3nc(C4CC4)no3)CC2)cc1` [Example 29, 1-(3-cyclopropyl-1,2,4-oxadiazol-5-yl)-4-[(1R,2R)-2-({[4-(ethylsulfonyl)benzyl]oxy}methyl)cyclopropyl]piperidine], the EC50 came to 2.3 nM.

As to `CCc1noc(N2CCC([C@H]3C[C@H]3COCc3ccc(S(C)(=O)=O)cc3)CC2)n1` [Example 30, 1-(3-ethyl-1,2,4-oxadiazol-5-yl)-4-[(1R,2R)-2-({[4-(methylsulfonyl)benzyl]oxy}methyl)cyclopropyl]piperidine], the half-maximal effective concentration (EC50) worked out at 2.8 nM.

For `O=S(=O)(c1ccc(COC[C@@H]2C[C@@H]2C2CCN(c3nc(C4CCC4)no3)CC2)cc1)C1CC1` [Example 31, 1-(3-cyclobutyl-1,2,4-oxadiazol-5-yl)-4-[(1R,2R)-2-({[4-(cyclopropylsulfonyl)benzyl]oxy}methyl)cyclopropyl]piperidine], the EC50 came to 7 nM.

`CCS(=O)(=O)c1ccc(COC[C@@H]2C[C@@H]2C2CCN(c3nc(C4CCC4)no3)CC2)cc1` [Example 32, 1-(3-cyclobutyl-1,2,4-oxadiazol-5-yl)-4-[(1R,2R)-2-({[4-(ethylsulfonyl)benzyl]oxy}methyl)cyclopropyl]piperidine] registered an EC50 of 0.8 nM.

The compound `CC(C)(C)OC(=O)N1CCC([C@H]2C[C@H]2COCc2ccc(S(C)(=O)=O)c(F)c2)CC1` [Example 33, tert-butyl 4-[(1R,2R)-2-({[3-fluoro-4-(methylsulfonyl)benzyl]oxy}methyl)cyclopropyl]piperidine-1-carboxylate] gave an EC50 of 1.1 nM.

The compound `CCS(=O)(=O)c1ccc(COC[C@@H]2C[C@@H]2C2CCN(C(=O)OC(C)(C)C)CC2)cc1F` [Example 34, tert-butyl 4-[(1R,2R)-2-({[4-(ethylsulfonyl)-3-fluorobenzyl]oxy}methyl)cyclopropyl]piperidine-1-carboxylate] yielded an EC50 of 0.1 nM.

Turning to `CC(C)c1noc(N2CCC([C@H]3C[C@H]3COCc3ccc(S(C)(=O)=O)c(F)c3)CC2)n1` [Example 35, 4-[(1R,2R)-2-({[3-fluoro-4-(methylsulfonyl)benzyl]oxy}methyl)cyclopropyl]-1-(3-isopropyl-1,2,4-oxadiazol-5-yl)piperidine], the midpoint of the response, the EC50, lay at 0.2 nM.

With `CCc1noc(N2CCC([C@H]3C[C@H]3COCc3ccc(S(C)(=O)=O)c(F)c3)CC2)n1` [Example 36, 1-(3-ethyl-1,2,4-oxadiazol-5-yl)-4-[(1R,2R)-2-({[3-fluoro-4-(methylsulfonyl)benzyl]oxy}methyl)cyclopropyl]piperidine], the EC50 turned out to be 1.9 nM.

For `CS(=O)(=O)c1ccc(COC[C@@H]2C[C@@H]2C2CCN(c3nc(C4CC4)no3)CC2)cc1F` [Example 37, 1-(3-cyclopropyl-1,2,4-oxadiazol-5-yl)-4-[(1R,2R)-2-({[3-fluoro-4-(methylsulfonyl)benzyl]oxy}methyl)cyclopropyl]piperidine], the EC50 came out at 0.6 nM.

In the case of `CCS(=O)(=O)c1ccc(COC[C@@H]2C[C@@H]2C2CCN(c3nc(C(C)C)no3)CC2)cc1F` [Example 38, 4-[(1R,2R)-2-({[3-fluoro-4-(ethylsulfonyl)benzyl]oxy}methyl)cyclopropyl]-1-(3-isopropyl-1,2,4-oxadiazol-5-yl)piperidine], the EC50 is 0.4 nM.

`CCS(=O)(=O)c1ccc(COC[C@@H]2C[C@@H]2C2CCN(c3nc(C4CC4)no3)CC2)cc1F` [Example 39, 1-(3-cyclopropyl-1,2,4-oxadiazol-5-yl)-4-[(1R,2R)-2-({[3-fluoro-4-(ethylsulfonyl)benzyl]oxy}methyl)cyclopropyl]piperidine] registered an EC50 of 0.6 nM.

In the case of `CCc1cnc(N2CCC([C@H]3C[C@H]3COCc3ccc(S(C)(=O)=O)c(F)c3)CC2)nc1` [Example 40, 5-ethyl-2-{4-[(1R,2R)-2-({[3-fluoro-4-(methylsulfonyl)benzyl]oxy}methyl)cyclopropyl]piperidin-1-yl}pyrimidine], a half-maximal effect (EC50) was put at 0.2 nM.

In turn, `CS(=O)(=O)c1ccc(COC[C@@H]2C[C@@H]2C2CCN(c3ncc(Cl)cn3)CC2)cc1F` [Example 41, 5-chloro-2-{4-[(1R,2R)-2-({[3-fluoro-4-(methylsulfonyl)benzyl]oxy}methyl)cyclopropyl]piperidin-1-yl}pyrimidine] showed an EC50 of 0.4 nM.

`CC(C)OC(=O)N1CCC([C@H]2C[C@H]2COCc2ccc(S(C)(=O)=O)c(F)c2)CC1` [Example 42, isopropyl 4-[(1R,2R)-2-({[3-fluoro-4-(methylsulfonyl)benzyl]oxy}methyl)cyclopropyl]piperidine-1-carboxylate] came in with an EC50 of 8.5 nM.

`CC1(OC(=O)N2CCC([C@H]3C[C@H]3COCc3ccc(S(C)(=O)=O)c(F)c3)CC2)CC1` [Example 43, 1-methylcyclopropyl 4-[(1R,2R)-2-({[3-fluoro-4-(methylsulfonyl)benzyl]oxy}methyl)cyclopropyl] piperidine-1-carboxylate] registered an EC50 of 4.7 nM.

`CC(C)(C)OC(=O)N1CCC([C@H]2C[C@H]2COCc2cc(F)c(S(C)(=O)=O)c(F)c2)CC1` [Example 44, tert-butyl 4-[(1R,2R)-2-({[3,5-difluoro-4-(methylsulfonyl)benzyl]oxy}methyl)cyclopropyl]piperidine-1-carboxylate] registered an EC50 of 14.8 nM.

On to `CS(=O)(=O)c1c(F)cc(COC[C@@H]2C[C@@H]2C2CCN(c3ncc(Cl)cn3)CC2)cc1F` [Example 45, 5-chloro-2-{4-[(1R,2R)-2-({[3,5-difluoro-4-(methylsulfonyl)benzyl]oxy}methyl)cyclopropyl]piperidin-1-yl}pyrimidine], for which the EC50 was determined as 0.6 nM.

As for `CCc1cnc(N2CCC([C@H]3C[C@H]3COCc3cc(F)c(S(C)(=O)=O)c(F)c3)CC2)nc1` [Example 46], the response was half-maximal at 0.4 nM (EC50).

`CS(=O)(=O)c1c(F)cc(COC[C@@H]2C[C@@H]2C2CCN(c3ncc(F)cn3)CC2)cc1F` [Example 47, 2-{4-[(1R,2R)-2-({[3,5-difluoro-4-(methylsulfonyl)benzyl]oxy}methyl)cyclopropyl]piperidin-1-yl}-5-fluoropyrimidine] returned an EC50 of 3.2 nM.

As to `CS(=O)(=O)c1c(F)cc(COC[C@@H]2C[C@@H]2C2CCN(c3ncc(C4CC4)cn3)CC2)cc1F` [Example 48, 5-cyclopropyl-2-{4-[(1R,2R)-2-({[3,5-difluoro-4-(methylsulfonyl)benzyl]oxy}methyl)cyclopropyl]piperidin-1-yl}pyrimidine], a half-maximal response (EC50) required 0.6 nM.

`CC1(OC(=O)N2CCC([C@H]3C[C@H]3COCc3cc(F)c(S(C)(=O)=O)c(F)c3)CC2)CC1` [Example 49, 1-methylcyclopropyl 4-[(1R,2R)-2-({[3,5-difluoro-4-(methylsulfonyl)benzyl]oxy}methyl)cyclopropyl] piperidine-1-carboxylate] registered an EC50 of 11.7 nM.

Regarding `CC(C)OC(=O)N1CCC([C@H]2C[C@H]2COCc2cc(F)c(S(C)(=O)=O)c(F)c2)CC1` [Example 50, isopropyl 4-[(1R,2R)-2-({[3,5-difluoro-4-(methylsulfonyl)benzyl]oxy}methyl)cyclopropyl] piperidine-1-carboxylate], the EC50 was 20.5 nM.

The compound `O=C(c1ccc(COC[C@@H]2C[C@@H]2C2CCN(c3ncc(Cl)cn3)CC2)cc1F)C1CC1` [Example 51] displayed an EC50 of 3.7 nM.
